Experimental data reported in patent US20250270213A1, “PI3Ka INHIBITORS” (Synnovation Therapeutics, Inc., priority 2022, published 2025).

System: T47D (PIK3CA H1047R) cells
Experiment: pS473 AKT assay with 2.5% FBS, T47D cells
Assay type: cell-based
Conditions: Homo sapiens, pSer473 AKT, DMEM with 2.5% FBS, 2 h treatment, read-out: T47D_IC50
Protocol: Example B. pS473 AKT Assay Protocol with 2.5% FBS
T47D (PIK3CA H1047R) cells were cultured using 10-cm petri dishes with recommended medium plus 10% fetal bovine serum. One day before the assay, cells were seeded in 96-well plates. After overnight incubation, the medium was changed to DMEM with 2.5% fetal bovine serum (FBS) and the cells were treated with different concentrations of the compounds for 2 h. Cells were then fixed using 4% paraformaldehyde at room temperature for 20 min. Aspirate 4% paraformaldehyde, and wash cells using 1× regular phosphate buffered saline 3 times, 5 min each. Aspirate any residual phosphate buffered saline and block cells using 10% goat serum containing 1% bovine serum albumin and 0.3% Triton X-100 at room temperature for 1 h. Without any additional washing, primary antibodies (rabbit anti-pSer473 AKT) were diluted using blocking buffer and added at a final volume of 50 microliter per well. Keep assay plates with primary antibodies overnight at 4° C. Wash cells using 1× regular phosphate buffered saline 3 times, 5 min each. After the final wash, incubate cells with horseradish peroxidase-conjugated secondary antibodies (goat Anti-rabbit IgG) diluted using the same blocking buffer at room temperature for 1 h. Wash cells thoroughly using 1× regular phosphate buffered saline 3 times, 5 min each. Aspirate any residual phosphate buffered saline. Add Super-Signal ELISA Pico Chemiluminescent Substrate at a final volume of 100 microliter per well. Read plates on i3x Multi-Mode Microplate Reader and calculate IC50 values using GraphPad Prism software.

| IC50 [nM] | Structure (SMILES) |
| --- | --- |
| < 1000 | CCc1nn2c3c4c(cc(C)cc4c(=O)n(C)c13)C(Nc1ccc(C)nc1-c1ccncc1)C2 (centres unmarked) [Compound 40, 2-Ethyl-3,6-dimethyl-8-((6-methyl-[2,4′-bipyridin]-3-yl)amino)-8,9-dihydrobenzo[de]pyrazolo[4,5,1-ij][1,7]naphthyridin-4(3H)-one] |
| < 1000 | CCn1ncc2c3c(C(C)Nc4ccc(Cl)nc4-c4ccc(=O)n(C)c4)cc(C)cc3c(=O)n(C)c21 (centres unmarked) [Compound 41, 9-(1-((6-chloro-1′-methyl-6′-oxo-1′,6′-dihydro-[2,3′-bipyridin]-3-yl)amino)ethyl)-3-ethyl-4,7-dimethyl-3,4-dihydro-5H-pyrazolo[3,4-c]isoquinolin-5-one] |
| < 1000 | CCn1ncc2c3c(C(C)Nc4ccc(Cl)nc4-c4ccc(C(=O)NC)c(F)c4)cc(C)cc3c(=O)n(C)c21 (centres unmarked) [Compound 42, 4-(6-chloro-3-((1-(3-ethyl-4,7-dimethyl-5-oxo-4,5-dihydro-3H-pyrazolo[3,4-c]isoquinolin-9-yl)ethyl)amino)pyridin-2-yl)-2-fluoro-N-methylbenzamide] |
| < 1000 | CCn1ncc2c3c(C(C)Nc4ccc(Cl)nc4-c4ccncn4)cc(C)cc3c(=O)n(C)c21 (centres unmarked) [Compound 43, 9-(1-((6-chloro-2-(pyrimidin-4-yl)pyridin-3-yl)amino)ethyl)-3-ethyl-4,7-dimethyl-3,4-dihydro-5H-pyrazolo[3,4-c]isoquinolin-5-one] |
| < 1000 | CCn1ncc2c3c(C(C)Nc4ccc(Cl)nc4-c4cncnc4)cc(C)cc3c(=O)n(C)c21 (centres unmarked) [Compound 44, 9-(1-((6-chloro-2-(pyrimidin-5-yl)pyridin-3-yl)amino)ethyl)-3-ethyl-4,7-dimethyl-3,4-dihydro-5H-pyrazolo[3,4-c]isoquinolin-5-one] |
| < 1000 | CCn1ncc2c3c(C(C)Nc4ccc(Cl)nc4-c4ccncc4F)cc(C)cc3c(=O)n(C)c21 (centres unmarked) [Compound 45, 9-(1-((6-chloro-3′-fluoro-[2,4′-bipyridin]-3-yl)amino)ethyl)-3-ethyl-4,7-dimethyl-3,4-dihydro-5H-pyrazolo[3,4-c]isoquinolin-5-one] |
| < 1000 | CCn1ncc2c3c(C(C)Nc4ccc(Cl)nc4-c4ccc(C(=O)N(C)C)cc4)cc(C)cc3c(=O)n(C)c21 (centres unmarked) [Compound 46, 4-(6-chloro-3-((1-(3-ethyl-4,7-dimethyl-5-oxo-4,5-dihydro-3H-pyrazolo[3,4-c]isoquinolin-9-yl)ethyl)amino)pyridin-2-yl)-N,N-dimethylbenzamide] |
| < 1000 | CCn1ncc2c3c(C(C)Nc4ccc(Cl)nc4-c4ccc(C(=O)O)cc4)cc(C)cc3c(=O)n(C)c21 (centres unmarked) [Compound 47, 4-(6-chloro-3-((1-(3-ethyl-4,7-dimethyl-5-oxo-4,5-dihydro-3H-pyrazolo[3,4-c]isoquinolin-9-yl)ethyl)amino)pyridin-2-yl) benzoic acid] |
| < 1000 | CCn1ncc2c3c(C(C)Nc4ccc(Cl)nc4-c4ccnn4C)cc(C)cc3c(=O)n(C)c21 (centres unmarked) [Compound 48, 9-(1-((6-chloro-2-(1-methyl-1H-pyrazol-5-yl)pyridin-3-yl)amino)ethyl)-3-ethyl-4,7-dimethyl-3,4-dihydro-5H-pyrazolo[3,4-c]isoquinolin-5-one] |
| < 1000 | CCn1ncc2c3c(C(C)Nc4ccc(Cl)nc4-c4cnn(C)c4C)cc(C)cc3c(=O)n(C)c21 (centres unmarked) [Compound 49, 9-(1-((6-chloro-2-(1,5-dimethyl-1H-pyrazol-4-yl)pyridin-3-yl)amino)ethyl)-3-ethyl-4,7-dimethyl-3,4-dihydro-5H-pyrazolo[3,4-c]isoquinolin-5-one] |
| < 1000 | CCn1ncc2c3c(C(C)Nc4ccc(Cl)nc4-c4cnn(C)c4)cc(C)cc3c(=O)n(C)c21 (centres unmarked) [Compound 50, 9-(1-((6-chloro-2-(1-methyl-1H-pyrazol-4-yl)pyridin-3-yl)amino)ethyl)-3-ethyl-4,7-dimethyl-3,4-dihydro-5H-pyrazolo[3,4-c]isoquinolin-5-one] |
| < 1000 | CCn1ncc2c3c(C(C)Nc4ccc(Cl)nc4-c4cn[nH]c4)cc(C)cc3c(=O)n(C)c21 (centres unmarked) [Compound 51, 9-(1-((6-chloro-2-(1H-pyrazol-4-yl)pyridin-3-yl)amino)ethyl)-3-ethyl-4,7-dimethyl-3,4-dihydro-5H-pyrazolo[3,4-c]isoquinolin-5-one] |
| < 1000 | CCn1ncc2c3c(C(C)Nc4ccc(C)nc4-c4cnn(C)c4)cc(C)cc3c(=O)n(C)c21 (centres unmarked) [Compound 52, 3-Ethyl-4,7-dimethyl-9-(1-((6-methyl-2-(1-methyl-1H-pyrazol-4-yl)pyridin-3-yl)amino)ethyl)-3,4-dihydro-5H-pyrazolo[3,4-c]isoquinolin-5-one] |
| < 1000 | CCn1ncc2c3c(C(C)Nc4ccc(C)nc4-c4cn[nH]c4)cc(C)cc3c(=O)n(C)c21 (centres unmarked) [Compound 53, 3-ethyl-4,7-dimethyl-9-(1-((6-methyl-2-(1H-pyrazol-4-yl)pyridin-3-yl)amino)ethyl)-3,4-dihydro-5H-pyrazolo[3,4-c]isoquinolin-5-one] |
| < 1000 | CCn1ncc2c3c(C(C)Nc4ccc(C)nc4-c4ccnn4C)cc(C)cc3c(=O)n(C)c21 (centres unmarked) [Compound 54, 3-ethyl-4,7-dimethyl-9-(1-((6-methyl-2-(1-methyl-1H-pyrazol-5-yl)pyridin-3-yl)amino)ethyl)-3,4-dihydro-5H-pyrazolo[3,4-c]isoquinolin-5-one] |
| < 1000 | CCn1ncc2c3c(C(C)Nc4ccc(C)nc4-c4ccc(C(=O)NC)c(F)c4)cc(C)cc3c(=O)n(C)c21 (centres unmarked) [Compound 55, 4-(3-((1-(3-ethyl-4,7-dimethyl-5-oxo-4,5-dihydro-3H-pyrazolo[3,4-c]isoquinolin-9-yl)ethyl)amino)-6-methylpyridin-2-yl)-2-fluoro-N-methylbenzamide] |
| < 1000 | CCn1ncc2c3c(C(C)Nc4ccccc4-c4cnn(CCO)c4)cc(C)cc3c(=O)n(C)c21 (centres unmarked) [Compound 56, 3-ethyl-9-(1-((2-(1-(2-hydroxyethyl)-1H-pyrazol-4-yl)phenyl)amino)ethyl)-4,7-dimethyl-3,4-dihydro-5H-pyrazolo[3,4-c]isoquinolin-5-one] |
| < 1000 | CCn1ncc2c3c(C(C)Nc4ccccc4N4CCN(C(C)=O)CC4)cc(C)cc3c(=O)n(C)c21 (centres unmarked) [Compound 57, 9-(1-((2-(4-Acetylpiperazin-1-yl)phenyl)amino)ethyl)-3-ethyl-4,7-dimethyl-3,4-dihydro-5H-pyrazolo[3,4-c]isoquinolin-5-one] |
| < 1000 | CCn1ncc2c3c(C(C)Nc4ccccc4N4CCn5cnnc5C4)cc(C)cc3c(=O)n(C)c21 (centres unmarked) [Compound 58, 9-(1-((2-(5,6-Dihydro-[1,2,4]triazolo[4,3-a]pyrazin-7(8H)-yl)phenyl)amino)ethyl)-3-ethyl-4,7-dimethyl-3,4-dihydro-5H-pyrazolo[3,4-c]isoquinolin-5-one] |
| < 1000 | CCn1ncc2c3c(C(C)Nc4ccc(Cl)nc4-c4noc(=O)[nH]4)cc(C)cc3c(=O)n(C)c21 (centres unmarked) [Compound 59, 3-(6-Chloro-3-((1-(3-ethyl-4,7-dimethyl-5-oxo-4,5-dihydro-3H-pyrazolo[3,4-c]isoquinolin-9-yl)ethyl)amino)pyridin-2-yl)-1,2,4-oxadiazol-5(4H)-one] |
| < 1000 | CCn1ncc2c3c(C(C)Nc4ccc(Cl)nc4-c4noc(=O)[nH]4)cc(C)cc3c(=O)n(CC(F)F)c21 (centres unmarked) [Compound 60, 3-(6-Chloro-3-((1-(4-(2,2-difluoroethyl)-3-ethyl-7-methyl-5-oxo-4,5-dihydro-3H-pyrazolo[3,4-c]isoquinolin-9-yl)ethyl)amino)pyridin-2-yl)-1,2,4-oxadiazol-5(4H)-one] |
| < 1000 | Cc1cc(C(C)Nc2ccc(Cl)nc2-c2noc(=O)[nH]2)c2c(c1)c(=O)n(C)c1c2cnn1C1CCCC1 (centres unmarked) [Compound 61, 3-(6-Chloro-3-((1-(3-cyclopentyl-4,7-dimethyl-5-oxo-4,5-dihydro-3H-pyrazolo[3,4-c]isoquinolin-9-yl)ethyl)amino)pyridin-2-yl)-1,2,4-oxadiazol-5(4H)-one] |
| < 1000 | Cc1cc(C(C)Nc2ccc(Cl)nc2-c2noc(=O)[nH]2)c2c(c1)c(=O)n(C)c1c2cnn1C(C)C (centres unmarked) [Compound 62, 3-(6-Chloro-3-((1-(3-isopropyl-4,7-dimethyl-5-oxo-4,5-dihydro-3H-pyrazolo[3,4-c]isoquinolin-9-yl)ethyl)amino)pyridin-2-yl)-1,2,4-oxadiazol-5(4H)-one] |
| < 1000 | CCn1ncc2c3c(C(C)Nc4ccc(Cl)nc4-c4noc(=O)[nH]4)cc(Cl)cc3c(=O)n(C)c21 (centres unmarked) [Compound 63, 3-(6-Chloro-3-((1-(7-chloro-3-ethyl-4-methyl-5-oxo-4,5-dihydro-3H-pyrazolo[3,4-c]isoquinolin-9-yl)ethyl)amino)pyridin-2-yl)-1,2,4-oxadiazol-5(4H)-one] |
| < 1000 | CC(Nc1ccc(Cl)nc1-c1noc(=O)[nH]1)c1cc(Cl)cc2c(=O)n(C)c3c(cnn3CC3CC3)c12 (centres unmarked) [Compound 64, 3-(6-Chloro-3-((1-(7-chloro-3-(cyclopropylmethyl)-4-methyl-5-oxo-4,5-dihydro-3H-pyrazolo[3,4-c]isoquinolin-9-yl)ethyl)amino)pyridin-2-yl)-1,2,4-oxadiazol-5(4H)-one] |
| < 1000 | CCCn1ncc2c3c(C(C)Nc4ccc(Cl)nc4-c4noc(=O)[nH]4)cc(C)cc3c(=O)n(C)c21 (centres unmarked) [Compound 65, 3-(6-Chloro-3-((1-(4,7-dimethyl-5-oxo-3-propyl-4,5-dihydro-3H-pyrazolo[3,4-c]isoquinolin-9-yl)ethyl)amino)pyridin-2-yl)-1,2,4-oxadiazol-5(4H)-one] |
